Reference: patent US20240108732A1, “Formulated and/or Co-Formulated Lipid Nanocarriers Compositions Containing Toll-Like Receptor ("TLR") Agonist Prodrugs Useful In The Treatment of Cancer and Methods Thereof” (Nammi Therapeutics, Inc., priority 2022, published 2024)

How the values were obtained:
human TLR8 = molecular target: T1, human TLR8 (Homo sapiens, UniProt Q9NR97); assay: Example 15: HEK-Blue hTLR8 cells / QUANTI-Blue SEAP assay; type: cell-based; conditions: from RAW-Blue and HEK-Blue hTLR8 results
T1 construct: host or cells: HEK-Blue hTLR8 cells
T1 sequence (Q9NR97 27-1041): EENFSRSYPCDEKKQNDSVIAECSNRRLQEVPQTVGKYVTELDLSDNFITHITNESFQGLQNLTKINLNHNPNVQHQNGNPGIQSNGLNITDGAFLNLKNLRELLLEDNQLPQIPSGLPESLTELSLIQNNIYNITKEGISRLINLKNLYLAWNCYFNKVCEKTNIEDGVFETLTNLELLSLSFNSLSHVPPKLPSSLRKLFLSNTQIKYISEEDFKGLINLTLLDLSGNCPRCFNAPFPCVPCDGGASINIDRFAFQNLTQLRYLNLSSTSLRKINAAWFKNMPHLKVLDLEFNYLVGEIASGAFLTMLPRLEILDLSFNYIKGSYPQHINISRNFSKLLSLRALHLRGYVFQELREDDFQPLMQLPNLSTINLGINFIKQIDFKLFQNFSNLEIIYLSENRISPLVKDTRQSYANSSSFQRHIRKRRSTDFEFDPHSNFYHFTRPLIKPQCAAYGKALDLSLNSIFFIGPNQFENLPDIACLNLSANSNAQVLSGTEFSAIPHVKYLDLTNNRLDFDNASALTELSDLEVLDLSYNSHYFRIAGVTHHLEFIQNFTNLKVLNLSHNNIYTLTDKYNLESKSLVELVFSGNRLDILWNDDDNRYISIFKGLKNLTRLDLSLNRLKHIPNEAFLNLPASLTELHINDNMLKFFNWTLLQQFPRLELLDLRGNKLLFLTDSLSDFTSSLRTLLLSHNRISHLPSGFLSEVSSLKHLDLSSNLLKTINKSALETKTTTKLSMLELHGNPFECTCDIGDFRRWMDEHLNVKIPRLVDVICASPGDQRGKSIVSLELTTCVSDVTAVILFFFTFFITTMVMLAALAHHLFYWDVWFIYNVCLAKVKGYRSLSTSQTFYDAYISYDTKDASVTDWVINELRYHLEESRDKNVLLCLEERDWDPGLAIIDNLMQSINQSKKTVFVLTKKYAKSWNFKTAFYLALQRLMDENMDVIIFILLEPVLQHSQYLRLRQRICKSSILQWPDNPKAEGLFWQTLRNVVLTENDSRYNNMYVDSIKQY
Excerpt: In another experiment, in vitro biological activity of SLNP-TR12 specificity to TLR7 was confirmed using the following experiment. […] It is noted that despite Raw-Blue cells that express a variety of TLRs including TLR7 and TLR8, the HEK-Blue™ hTLR8 cells dominantly express the human TLR8 gene and an NF-κB/AP-1-inducible SEAP (secreted embryonic alkaline phosphatase) reporter gene. Thus, SEAP levels produced upon TLR8 stimulation can be readily determined by performing the assay in HEK-Blue™ Detection.
Concurrently, HEK-Blue TLR8 were incubated with SLNP-TR5 or SLNP-TR12 at different concentrations. After 24 h incubation with the compounds, TLR stimulation was assessed by measuring the levels of SEAP optimal density (OD) using QUANTI-Blue™ assay. ODs were normalized to the control (untreated) group (See, FIG. 23(B)).

TLR7 = molecular target: T2, TLR7 (Mus musculus, UniProt P58681); assay: Example 13: RAW-Blue cells / QUANTI-Blue SEAP reporter assay; type: cell-based; conditions: 24 h incubation
T2 construct: Raw-Blue cells that express a variety of TLRs including TLR7 and TLR8; host or cells: RAW-Blue cells
T2 sequence (P58681 27-1050): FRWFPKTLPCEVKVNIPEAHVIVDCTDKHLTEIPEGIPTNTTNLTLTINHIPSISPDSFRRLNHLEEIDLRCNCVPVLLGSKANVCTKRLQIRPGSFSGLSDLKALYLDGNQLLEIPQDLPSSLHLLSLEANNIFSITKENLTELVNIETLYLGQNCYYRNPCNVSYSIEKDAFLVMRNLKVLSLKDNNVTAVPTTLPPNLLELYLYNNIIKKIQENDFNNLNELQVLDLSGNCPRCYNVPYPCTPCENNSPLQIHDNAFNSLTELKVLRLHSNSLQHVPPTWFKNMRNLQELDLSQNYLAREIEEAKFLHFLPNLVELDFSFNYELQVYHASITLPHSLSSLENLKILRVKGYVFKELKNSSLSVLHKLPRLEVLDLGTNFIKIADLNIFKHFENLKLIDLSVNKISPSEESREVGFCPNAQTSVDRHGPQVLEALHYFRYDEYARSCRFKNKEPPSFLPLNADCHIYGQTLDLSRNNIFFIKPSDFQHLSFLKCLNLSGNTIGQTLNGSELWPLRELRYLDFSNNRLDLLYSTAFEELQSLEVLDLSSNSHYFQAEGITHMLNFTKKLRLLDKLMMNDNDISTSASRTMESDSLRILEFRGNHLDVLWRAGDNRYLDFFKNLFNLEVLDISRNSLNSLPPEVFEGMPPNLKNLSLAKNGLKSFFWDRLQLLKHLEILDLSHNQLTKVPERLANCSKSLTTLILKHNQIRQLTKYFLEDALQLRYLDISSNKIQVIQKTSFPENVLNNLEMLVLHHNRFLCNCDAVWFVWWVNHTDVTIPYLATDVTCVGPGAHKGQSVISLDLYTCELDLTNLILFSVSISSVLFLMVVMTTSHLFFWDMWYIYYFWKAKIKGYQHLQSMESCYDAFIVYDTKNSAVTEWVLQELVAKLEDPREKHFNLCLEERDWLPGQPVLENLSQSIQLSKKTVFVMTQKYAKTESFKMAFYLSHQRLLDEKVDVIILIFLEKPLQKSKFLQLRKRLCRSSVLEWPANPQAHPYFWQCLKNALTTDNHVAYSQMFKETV
Protocol: By way of background, RAW-Blue™ Cells and QUANTI-Blue™ (InvivoGen, San Diego, CA) assay were utilized. Raw Blue™ express […] Toll-like receptors (“TLRs”) and an NF-κB/AP-1-inducible SEAP (secreted embryonic alkaline phosphatase) reporter gene. Stimulation of these cells with TR12 leads to NF-κB activation through TLR7 which can be measured by detection of SEAP levels. Briefly, RAW-Blue™ Cells were incubated with TR12-SA (TR12-Stearic Acid) and SLNP-TR12 (TR12 Stearic Acid in Solid Lipid Nanoparticle from) at different concentration. After 24 h incubation with the compounds, TLR stimulation was assessed by measuring the levels of SEAP optimal density (OD) using QUANTI-Blue™ assay. ODs were normalized to the control (untreated) group. […] (See, FIG. 21).

SMILES	specificity TLR7 versus TLR8 (human TLR8)	TLR stimulation (SEAP OD normalized to untreated control) (TLR7)
CCCCCCCCCCCCCCCCCC(=O)NCCCCOn1c(CCCC)nc2c(N)nc3ccccc3c21 [TR5, Telratolimod]	stimulates both TLR7 and TLR8	
CCCCCCCCCCCCCCCCCC(=O)OCOC(=O)N1CCN(c2ccc(Cn3c(=O)[nH]c4c(N)nc(NCCCC)nc43)cn2)CC1 [TR12 prodrug]		stimulation of TLR-7
